Assay results from ChEMBL document CHEMBL4261501, “Design, synthesis and biological evaluation of imidazopyridine-propenone conjugates as potent tubulin inhibitors” (Medchemcomm, 2017).
One block for each molecule: values may come before it. Active and inactive are the calls of the source. The rule behind the calls is not given here.

Key:
A549 [1] = assay: Induction of apoptosis in human A549 cells assessed as cytoplasmic condensation at 0.5 uM after 48 hrs by Hoechst 33258 staining based fluorescence microscopic analysis; type: functional, cell-based
A549 [2] = assay: Induction of apoptosis in human A549 cells assessed as early apoptotic cells at 0.5 uM after 48 hrs by Annexin V-FITC/propidium iodide staining based flow cytometry (reference value: 1.03%); type: functional
A549 [3] = assay: Cell cycle arrest in human A549 cells assessed as accumulation at S phase at 1 uM after 48 hrs by propidium iodide staining based flow cytometry (reference value: 1.92%); type: functional
A549 [4] = assay: Induction of mitochondrial membrane potential loss in human A549 cells assessed as collapse of the mitochondrial membrane potential at 0.5 uM after 48 hrs by JC1 staining based flow cytomtery (reference value: 3.5%); type: functional
MCF7 = assay: cells; conditions: Homo sapiens, MCF7, 48 h
Description: Cytotoxicity against human MCF7 cells after 48 hrs by MTT assay

A549 [5] = assay: Induction of apoptosis in human A549 cells assessed as late apoptotic cells at 1 uM after 48 hrs by Annexin V-FITC/propidium iodide staining based flow cytometry (reference value: 3.83%); type: functional
A549 [6] = assay: Cell cycle arrest in human A549 cells assessed as accumulation at sub-G1 phase at 1 uM after 48 hrs by propidium iodide staining based flow cytometry (reference value: 1.11%); type: functional
DU-145 = assay: Cytotoxicity against human DU145 cells after 48 hrs by MTT assay; type: functional, cell-based; conditions: DU-145, 48 h
A549 [7] = assay: Disruption of microtubule organization in human A549 cells at 0.5 uM after 48 hrs by fluorescence microscopic analysis; type: cell-based
A549 [8] = assay: Cell cycle arrest in human A549 cells assessed as accumulation at S phase at 0.5 uM after 48 hrs by propidium iodide staining based flow cytometry (reference value: 1.92%); type: functional
A549 [9] = assay: Induction of apoptosis in human A549 cells assessed as necrotic cells at 0.5 uM after 48 hrs by Annexin V-FITC/propidium iodide staining based flow cytometry (reference value: 1.17%); type: functional
A549 [10] = assay: Cell cycle arrest in human A549 cells assessed as accumulation at G2/M phase at 0.5 uM after 48 hrs by propidium iodide staining based flow cytometry (reference value: 7.4%); type: functional
A549 [11] = assay: Induction of mitochondrial membrane potential loss in human A549 cells assessed as intact mitochondrial membrane at 1 uM after 48 hrs by JC1 staining based flow cytomtery (reference value: 96.3%); type: functional
A549 [12] = assay: Induction of apoptosis in human A549 cells assessed as necrotic cells at 1 uM after 48 hrs by Annexin V-FITC/propidium iodide staining based flow cytometry (reference value: 1.17%); type: functional
Tubulin (Homo sapiens) = Tubulin (Homo sapiens) (UniProt P68371+Q9H4B7+P0DPH7+P68366+Q13509+Q71U36+P04350+Q3ZCM7+P07437+P68363+Q9BQE3+Q6PEY2+Q13885+Q9BVA1+Q9BUF5); assay: Inhibition of tubulin polymerization (unknown origin) at 3 uM after 1 hr by fluorescence assay relative to control; type: protein-complex assay
Tubulin = assay: Inhibition of tubulin polymerization (unknown origin) after 1 hr by fluorescence assay; type: protein-complex assay, Homo sapiens
A549 [13] = assay: Induction of apoptosis in human A549 cells assessed as late apoptotic cells at 0.5 uM after 48 hrs by Annexin V-FITC/propidium iodide staining based flow cytometry (reference value: 3.83%); type: functional
A549 [14] = assay: Induction of apoptosis in human A549 cells assessed as early apoptotic cells at 1 uM after 48 hrs by Annexin V-FITC/propidium iodide staining based flow cytometry (reference value: 1.03%); type: functional
A549 [15] = assay: Induction of apoptosis in human A549 cells assessed as live cells at 1 uM after 48 hrs by Annexin V-FITC/propidium iodide staining based flow cytometry (reference value: 93.97%); type: functional
A549 [16] = assay: Cell cycle arrest in human A549 cells assessed as accumulation at G0/G1 phase at 0.5 uM after 48 hrs by propidium iodide staining based flow cytometry (reference value: 90.52%); type: functional
A549 [17] = assay: Induction of mitochondrial membrane potential loss in human A549 cells assessed as collapse of the mitochondrial membrane potential at 1 uM after 48 hrs by JC1 staining based flow cytomtery (reference value: 3.5%); type: functional
A549 [18] = assay: Induction of apoptosis in human A549 cells assessed as formation of apoptotic bodies at 0.5 uM after 48 hrs by Hoechst 33258 staining based fluorescence microscopic analysis; type: functional, cell-based
A549 [19] = assay: Induction of apoptosis in human A549 cells assessed as nuclear fragmentation at 0.5 uM after 48 hrs by Hoechst 33258 staining based fluorescence microscopic analysis; type: functional, cell-based
A549 [20] = assay: Induction of mitochondrial membrane potential loss in human A549 cells assessed as intact mitochondrial membrane at 0.5 uM after 48 hrs by JC1 staining based flow cytomtery (reference value: 96.3%); type: functional
A549 [21] = assay: Cell cycle arrest in human A549 cells assessed as accumulation at G0/G1 phase at 1 uM after 48 hrs by propidium iodide staining based flow cytometry (reference value: 90.52%); type: functional
HeLa = assay: cells; conditions: Homo sapiens, 48 h
Description: Cytotoxicity against human HeLa cells after 48 hrs by MTT assay

A549 [22] = assay: Cell cycle arrest in human A549 cells assessed as accumulation at sub-G1 phase at 0.5 uM after 48 hrs by propidium iodide staining based flow cytometry (reference value: 1.11%); type: functional
A549 [23] = assay: Cell cycle arrest in human A549 cells assessed as accumulation at G2/M phase at 1 uM after 48 hrs by propidium iodide staining based flow cytometry (reference value: 7.4%); type: functional
A549 [24] = assay: cells; conditions: Homo sapiens, A549, 48 h
Description: Cytotoxicity against human A549 cells after 48 hrs by MTT assay

A549 [25] = assay: Induction of apoptosis in human A549 cells assessed as live cells at 0.5 uM after 48 hrs by Annexin V-FITC/propidium iodide staining based flow cytometry (reference value: 93.97%); type: functional

IC50 (MCF7): 1.81 µM | inhibition (Tubulin (Homo sapiens)): 68.2% | IC50 (Tubulin): 1.82 µM | IC50 (HeLa): 1.22 µM | IC50 (A549 [24]): 0.861 µM
SMILES: O=C(/C=C\Nc1ccc2ncccc2c1)c1c(-c2ccccc2)nc2ccccn12
Activity (A549 [1]): Active | Activity (A549 [2]): 22.9 - 22.92% | Activity (A549 [3]): 4.28% | Activity (A549 [4]): 22.5% | Activity (A549 [5]): 18.5 - 18.52% | Activity (A549 [6]): 0.91% | IC50 (DU-145): 1.08 µM | Activity (A549 [7]): Active | Activity (A549 [8]): 2.77% | Activity (A549 [9]): 0.75 - 0.8% | Activity (A549 [10]): 15.69% | Activity (A549 [11]): 60.8% | Activity (A549 [12]): 1.07 - 1.1% | Activity (A549 [13]): 11.35 - 11.4% | Activity (A549 [14]): 34.99 - 35% | Activity (A549 [15]): 45.4 - 45.42% | Activity (A549 [16]): 82.37% | Activity (A549 [17]): 31.7% | Activity (A549 [18]): Active | Activity (A549 [19]): Active | Activity (A549 [20]): 73.5% | Activity (A549 [21]): 66.32% | Activity (A549 [22]): 0.5% | Activity (A549 [23]): 30.5% | Activity (A549 [25]): 64.98 - 65%

IC50 (MCF7): 13.6 µM | IC50 (HeLa): 14.6 µM | IC50 (A549 [24]): 9.9 µM
SMILES: COc1cc(N/C=C\C(=O)c2c(-c3ccc(Cl)cc3)nc3ccccn23)cc(OC)c1
IC50 (DU-145): 12 µM

IC50 (MCF7): 15 µM | IC50 (HeLa): 9.44 µM | IC50 (A549 [24]): 1.05 µM
SMILES: COc1ccc(-c2nc3ccccn3c2C(=O)/C=C\Nc2cnc3ccccc3c2)cc1
IC50 (DU-145): 5.28 µM

IC50 (MCF7): 18.9 µM | IC50 (HeLa): 13.6 µM | IC50 (A549 [24]): 11 µM
SMILES: COc1ccc(-c2nc3ccccn3c2C(=O)/C=C\Nc2ccc3[nH]ccc3c2)cc1
IC50 (DU-145): 11.3 µM

IC50 (MCF7): 18.9 µM | IC50 (HeLa): 3.71 µM | IC50 (A549 [24]): 2.88 µM
SMILES: O=C(/C=C\Nc1cnc2ccccc2c1)c1c(-c2ccc(Cl)cc2)nc2ccccn12
IC50 (DU-145): 4.17 µM

IC50 (MCF7): 16.3 µM | IC50 (HeLa): 11.8 µM | IC50 (A549 [24]): 6.46 µM
SMILES: COc1ccc(N/C=C\C(=O)c2c(-c3ccc(Cl)cc3)nc3ccccn23)cc1
IC50 (DU-145): 10.8 µM

IC50 (MCF7): 9.6 µM | IC50 (HeLa): 10.9 µM | IC50 (A549 [24]): 2.29 µM
SMILES: O=C(/C=C\Nc1ccc2cc[nH]c2c1)c1c(-c2ccc(Cl)cc2)nc2ccccn12
IC50 (DU-145): 2.63 µM

IC50 (MCF7): 22.8 µM | IC50 (HeLa): 16.4 µM | IC50 (A549 [24]): 13 µM
SMILES: O=C(/C=C\Nc1ccc2ncccc2c1)c1c(-c2ccc(Cl)cc2)nc2ccccn12
IC50 (DU-145): 13.6 µM

IC50 (MCF7): 11.6 µM | IC50 (HeLa): 4.85 µM | IC50 (A549 [24]): 1.21 µM
SMILES: COc1ccc(-c2nc3ccccn3c2C(=O)/C=C\Nc2ccc3ncccc3c2)cc1
IC50 (DU-145): 4.72 µM

IC50 (MCF7): 8.67 µM | IC50 (HeLa): 2.04 µM | IC50 (A549 [24]): 1.35 µM
SMILES: O=C(/C=C\Nc1ccc(Br)cc1)c1c(-c2ccccc2)nc2ccccn12
IC50 (DU-145): 1.82 µM

IC50 (MCF7): 5.17 µM | IC50 (HeLa): 3.08 µM | IC50 (A549 [24]): 1.75 µM
SMILES: O=C(/C=C\Nc1cnc2ccccc2c1)c1c(-c2ccccc2)nc2ccccn12
IC50 (DU-145): 2.44 µM
